The results in this text go back to patent US20100143386A1, “FGFR4 Promotes Cancer Cell Resistance in Response to Chemotherapeutic Drugs” (Max-Planck-Gesellschaft zur foerderung der Wissenschaften, …, priority 2006, published 2010).

The subject of one assay is Bcl-xl expression. As to conditions: MCF7-FGFR4 cells, 10 μM U0126 for 6 hours and 12 hours.
Assay [1] concerns Fgfr4 mediated downstream signalling (p-Erk). Put plainly: FGF19 induced MAPK activation (P-ERK immunoblot) in breast cancer cell lines. It is filed as cell-based. As to conditions: BT-474, MDA-MB-361 and ZR75-1 starved 48 h; compared to not stimulated control cells. As for the experimental part: Secondary HRP-conjugated antibodies were goat anti-mouse (Sigma, Taufkirchen, Germany) and goat anti-rabbit (Biorad, Munich, Germany).
Cell cultures were washed with PBS and incubated at 4° C. with lysis buffer (50 mM HEPES/NaOH, pH 7.5, 150 mM NaCl, 1 mM EDTA, 10% glycerol and 1% Triton X-100) supplemented with phosphatase and protease inhibitors (10 mM sodium pyrophosphate, 1 mM PMSF, 2 mM sodium orthovanadate, 10 μg/ml aprotinin). Cellular debris was removed by centrifugation. Protein concentration measurements were performed using the Micro-BCA-Protein-Assay Kit from Pierce (Bonn, Germany). For immunoprecipitations, whole-cell lysates were combined with antibody and 30 μl of protein A- or G-sepharose slurry (GE Healthcare). The samples were incubated for 3 h on a rotation wheel at 4° C. The precipitates were washed three times with HNTG buffer (20 mM HEPES/NaOH, pH 7.5, 150 mM NaCl, 10% glycerol, 0.1% Triton X-100 and 10 mM sodium pyrophosphate) suspended in 3×SDS sample buffer, boiled for 3 min and subjected to SDS-PAGE. For Western blot analysis, proteins were transferred to nitrocellulose membranes and incubated with the appropriate antibodies. Signals were developed via an enhanced chemiluminescence detection system (ECL, Perkin Elmer, Wellesley, Mass.). Before reprobing, membranes were stripped with 65 mM Tris/HCl pH 6.8 buffer containing 2% SDS at 50° C. for 1 h.

Method for Bcl-xl expression: RNA was isolated using the RNeasy Mini Kit (Qiagen, Hilden, Germany) and reversely transcribed into cDNA using the AMV reverse transcriptase (Roche, Mannheim, Germany) and OligodT-Primer (Gibco, Germany). The RNA and cDNA concentration was measured using the NanoDrop ND1000 (PeqLab, Erlangen, Germany) system. […] PCR products were subjected to electrophoresis on a 2% agarose gel and DNA was visualized by ethidium bromide staining.

On to `N#CC(=C(/N)Sc1ccccc1N)/C(C#N)=C(\N)Sc1ccccc1N` [U0126], for which the “Bcl-xl expression (semiquantitative PCR)” value in the assay on Bcl-xl expression is “abolished”.
Take “FGF19: specific ligand of Fgfr4, FGF-Ligands purchased from TEBU”: the “p-Erk-levels on FGF19 stimulation” value in assay [1] was “increased”.
